In brackets after ≈: the same amount, converted by molar mass. Activity calls are given as the source filed them.

Assay [1] has as its system Bacillus subtilis. Put plainly: Potency index, ratio of chloromycin MIC to compound MIC for Bacillus subtilis ATCC6633. The assay is classed as functional.
For assay [2], the system named is Staphylococcus aureus. Put plainly: Antibacterial activity against Staphylococcus aureus ATCC25923 after 24 hrs by two fold serial dilution method. The assay is classed as functional. The conditions noted are these: ATCC25923, 24 h.
In assay [3] the test system is Escherichia coli. Put plainly: Antibacterial activity against Escherichia coli DH52 after 24 hrs by two fold serial dilution method. The assay is classed as functional. The conditions noted are these: DH52, 24 h.
The next assay relates to Pseudomonas aeruginosa. Put plainly: Antibacterial activity against Pseudomonas aeruginosa ATCC27853 after 24 hrs by two fold serial dilution method. The assay is classed as functional. The conditions noted are these: ATCC27853, 24 h.
The next assay concerns Salmonella typhi. The assay can be described thus: Antibacterial activity against Bacillus typhi after 24 hrs by two fold serial dilution method. The format is functional, Salmonella enterica subsp. enterica serovar Typhi. The note with it: Salmonella enterica.
Assay [4] deals with Staphylococcus aureus. Put plainly: Antibacterial activity against methicillin-resistant Staphylococcus aureus N315 after 24 hrs by two fold serial dilution method. The assay is classed as functional. The conditions noted are these: N315, 24 h.
A further assay has as its system Shigella dysenteriae. Put plainly: Antibacterial activity against Shigella dysenteriae after 24 hrs by two fold serial dilution method. The format is functional.
The test system of the next assay is Candida. The assay can be described thus: Antifungal activity against Candida mycoderma ATCC10231 after 24 hrs by two fold serial dilution method. The assay is classed as functional. The note with it: ATCC10231, 24 h.
For the next assay, the system named is Candida albicans. The assay can be described thus: Antifungal activity against Candida albicans ATCC76615 after 24 hrs by two fold serial dilution method. The assay is classed as functional. The conditions noted are these: ATCC76615, 24 h.
Another assay deals with Micrococcus luteus. Put plainly: Antibacterial activity against Micrococcus luteus ATCC4698 after 24 hrs by two fold serial dilution method. The assay is classed as functional. The conditions noted are these: ATCC4698, 24 h.
Assay [5] deals with Cyberlindnera jadinii. Put plainly: Antifungal activity against Candida utilis ATCC9950 after 24 hrs by two fold serial dilution method. The format is functional. The note with it: Williopsis jadinii, ATCC9950, 24 h.
Assay [6] has as its system Bacillus subtilis. Put plainly: Antibacterial activity against Bacillus subtilis ATCC6633 after 24 hrs by two fold serial dilution method. The assay is classed as functional. The conditions noted are these: ATCC6633, 24 h.
Assay [7] has as its system Escherichia coli. Put plainly: Antibacterial activity against Escherichia coli JM109 after 24 hrs by two fold serial dilution method. The format is functional. The conditions noted are these: JM109, 24 h.
For another assay, the system named is Saccharomyces cerevisiae. The assay can be described thus: Antifungal activity against Beer yeast ATCC9763 after 24 hrs by two fold serial dilution method. The assay is classed as functional. The note with it: ATCC9763, 24 h.
A further assay has as its system Aspergillus flavus. The assay can be described thus: Antifungal activity against Aspergillus flavus ATCC204304 after 24 hrs by two fold serial dilution method. The format is functional. The note with it: ATCC204304, 24 h.
For assay [8], the system named is Bacillus. The assay can be described thus: Antibacterial activity against Bacillus proteus ATCC13315 after 24 hrs by two fold serial dilution method. The format is functional. The note with it: ATCC13315, 24 h.
The test system of assay [9] is Bacillus. The assay can be described thus: Antibacterial activity against Bacillus proteus ATCC13315 assessed as membrane permeabilization at 12 times MIC monitored for 2 hrs by propidium iodide staining method. The assay is classed as functional, organism-based.
Assay [10] relates to Staphylococcus aureus. Put plainly: Bactericidal activity against methicillin-resistant Staphylococcus aureus N315 assessed as reduction in viable bacterial count at 6 times MIC within 1.5 hrs by time kill assay. The format is functional.
Assay [11] concerns Staphylococcus aureus. Put plainly: Ratio of MIC for methicillin-resistant Staphylococcus aureus N315 after 10 passages to MIC for methicillin-resistant Staphylococcus aureus N315 before 10 passages. The format is functional.
Assay [12] deals with Staphylococcus aureus. Put plainly: Antibacterial activity against methicillin-resistant Staphylococcus aureus N315 assessed as membrane permeabilization at 12 times MIC monitored for 2 hrs by propidium iodide staining method. The assay is classed as functional, organism-based.
For assay [13], the system named is Staphylococcus aureus. Put plainly: Antibacterial activity against methicillin-resistant Staphylococcus aureus N315 at 0.5 times MIC after 10 passages by two fold serial dilution method. The assay is classed as functional, organism-based.
Assay [14] deals with Calf thymus DNA. The assay can be described thus: Binding affinity to calf thymus DNA assessed as hypochromism at 260 nm at 0 to 9 X 10^-5 mol/L by UV-Vis spectroscopy. The format is nucleic-acid assay. The conditions noted are these: Bos taurus.
For assay [15], the system named is Calf thymus DNA. The assay can be described thus: Binding affinity to calf thymus DNA at 260 nm by UV-Vis spectroscopy. The assay is classed as nucleic-acid assay. The conditions noted are these: Bos taurus.
Assay [16] concerns Staphylococcus aureus. The assay can be described thus: Potency index, ratio of norfloxacin MIC to compound MIC for methicillin-resistant Staphylococcus aureus N315. The assay is classed as functional.
The test system of assay [17] is Staphylococcus aureus. Put plainly: Potency index, ratio of chloromycin MIC to compound MIC for methicillin-resistant Staphylococcus aureus N315. The format is functional.
Assay [18] relates to Calf thymus DNA. Put plainly: Binding affinity to neutral red bound calf thymus DNA assessed as increase in absorption at 460 nm at 0 to 10.5 X 10^-5 mol/L by UV-Vis spectroscopy. The assay is classed as nucleic-acid assay. The conditions noted are these: Bos taurus.
Assay [19] concerns Cyberlindnera jadinii. The assay can be described thus: Potency index, ratio of fluconazole MIC to compound MIC for Candida utilis ATCC9950. The assay is classed as functional.

Usually MIC stands for the smallest concentration in the dilution series that meets the test's criterion for growth inhibition. The low end stands for a more susceptible organism, the high end for a less susceptible organism. With `CCCCc1nc(Cl)c(/C=N/N2C(=O)c3cccc4c(N5CCOCC5)ccc(c34)C2=O)n1Cc1cccc(Cl)c1`, in the assay with Bacillus subtilis [1], the Ratio turned out to be 14. The MIC in the assay on Staphylococcus aureus [2] was 430 µM (≈ 254 µg/mL); in the assay on Escherichia coli [3] it was 430 µM (≈ 254 µg/mL); against Pseudomonas aeruginosa it was 430 µM (≈ 254 µg/mL); against Salmonella typhi, 0.43 µM (≈ 0.254 µg/mL); in the assay on Staphylococcus aureus [4], 430 µM (≈ 254 µg/mL); in the assay on Shigella dysenteriae, 0.11 µM (≈ 0.065 µg/mL). Also, the MIC against Candida stood at 430 µM (≈ 254 µg/mL); against Candida albicans it was 430 µM (≈ 254 µg/mL); against Micrococcus luteus, 430 µM (≈ 254 µg/mL); in the assay with Cyberlindnera jadinii [5], 220 µM (≈ 130 µg/mL); with Bacillus subtilis [6] it was 7 µM (≈ 4.13 µg/mL); with Escherichia coli [7] it was 430 µM (≈ 254 µg/mL). Moreover, the MIC in the assay on Saccharomyces cerevisiae amounted to 220 µM (≈ 130 µg/mL); against Aspergillus flavus it was 430 µM (≈ 254 µg/mL); against Bacillus [8], 220 µM (≈ 130 µg/mL).

As to `CCCCc1nc(Cl)c(/C=N/N2C(=O)c3cccc4c(N5CCOCC5)ccc(c34)C2=O)n1Cc1ccc([N+](=O)[O-])cc1`, the result with Bacillus [9], with Staphylococcus aureus [12], with Staphylococcus aureus [13], in the assay on Calf thymus DNA [14] and with Calf thymus DNA [18] was Active. In addition, the MIC against Staphylococcus aureus [2] turned out to be 210 µM (≈ 126 µg/mL); in the assay on Escherichia coli [3], 420 µM (≈ 252 µg/mL); in the assay on Pseudomonas aeruginosa, 50 µM (≈ 30.1 µg/mL); against Salmonella typhi, 0.11 µM (≈ 0.0661 µg/mL); in the assay with Staphylococcus aureus [4], 3 µM (≈ 1.8 µg/mL); in the assay on Shigella dysenteriae it was 0.11 µM (≈ 0.0661 µg/mL). The MIC was determined as 50 µM (≈ 30.1 µg/mL) against Candida; 3 µM (≈ 1.8 µg/mL) against Candida albicans; 850 µM (≈ 511 µg/mL) against Micrococcus luteus; 10 µM (≈ 6.01 µg/mL) in the assay with Cyberlindnera jadinii [5]; 210 µM (≈ 126 µg/mL) against Bacillus subtilis [6]; 50 µM (≈ 30.1 µg/mL) in the assay on Escherichia coli [7]. In addition, the results for the MIC with Saccharomyces cerevisiae, in the assay with Aspergillus flavus and with Bacillus [8] were 420 µM (≈ 252 µg/mL), 110 µM (≈ 66.1 µg/mL) and 110 µM (≈ 66.1 µg/mL), respectively. In addition, the Activity in the assay with Staphylococcus aureus [10] was above 3 log10CFU/ml. Moreover, the Ratio result in the assay on Staphylococcus aureus [11] is “<=100”; in the assay on Staphylococcus aureus [16] it was 7; in the assay on Staphylococcus aureus [17], 17. The K in the assay with Calf thymus DNA [15] was determined as 0.59 ×10⁴ L/mol.

For `CCCCCCCCCCn1c(CCCC)nc(Cl)c1/C=N/N1C(=O)c2cccc3c(N4CCOCC4)ccc(c23)C1=O`, the MIC worked out at 420 µM (≈ 255 µg/mL) against Staphylococcus aureus [2]; 420 µM (≈ 255 µg/mL) against Escherichia coli [3]; 420 µM (≈ 255 µg/mL) against Pseudomonas aeruginosa; 0.84 µM (≈ 0.509 µg/mL) in the assay on Salmonella typhi; 30 µM (≈ 18.2 µg/mL) in the assay on Staphylococcus aureus [4]; 0.1 µM (≈ 0.0606 µg/mL) against Shigella dysenteriae. Also, the MIC with Candida was 210 µM (≈ 127 µg/mL); in the assay with Candida albicans, 210 µM (≈ 127 µg/mL); in the assay with Micrococcus luteus, 840 µM (≈ 509 µg/mL); with Cyberlindnera jadinii [5] it was 3 µM (≈ 1.82 µg/mL); in the assay with Bacillus subtilis [6], 30 µM (≈ 18.2 µg/mL); in the assay with Escherichia coli [7] it was 840 µM (≈ 509 µg/mL). Further, the figures for the MIC with Saccharomyces cerevisiae, against Aspergillus flavus and in the assay with Bacillus [8] were 420 µM (≈ 255 µg/mL), 210 µM (≈ 127 µg/mL) and 210 µM (≈ 127 µg/mL), respectively. The Ratio with Cyberlindnera jadinii [19] came out at 10.

For the origin of these results see ChEMBL document CHEMBL3817825, “Synthesis and biological evaluation of Schiff base-linked imidazolyl naphthalimides as novel potential anti-MRSA agents” (2016).
